Literature values, collected in patent publication US20090181887A1, “USE OF A GLP-1 MOLECULE FOR TREATMENT OF BILIARY DYSKINESIA AND/OR BILIARY PAIN/DISCOMFORT” (Gastrotech Pharma A/S, priority 2005, published 2009).
Where no end group is shown, it is not given here.

Details: in man; Wettergren et al, 1993; Gutniak et al, 1996

## glucagon-like peptide-1 (HAEGTFTSDVSSYLEGQAAKEFIAWLVKGR-NH2; ends and bridges not checked; UniProt P01275 98-127, looked up) [GLP-1, gastrointestinal peptide hormone; natural forms GLP-1 (7-36)amide and GLP-1 (7-37)]
  slowing of gastric emptying: 50%
